Data on 11 compounds can be found in patent publication US8461151B2, “Aryl-/heteroaryl-cyclohexenyl-tetraazabenzo[e]azulenes” (Hoffmann-La Roche Inc., priority 2010, dated 2013).

In the assay the target is T1, human V1a receptor (Homo sapiens, UniProt P37288).
T1 construct: expressed in transfected cells; host or cells: HEK293 cells, transiently transfected; membranes
T1 sequence (P37288 whole entry): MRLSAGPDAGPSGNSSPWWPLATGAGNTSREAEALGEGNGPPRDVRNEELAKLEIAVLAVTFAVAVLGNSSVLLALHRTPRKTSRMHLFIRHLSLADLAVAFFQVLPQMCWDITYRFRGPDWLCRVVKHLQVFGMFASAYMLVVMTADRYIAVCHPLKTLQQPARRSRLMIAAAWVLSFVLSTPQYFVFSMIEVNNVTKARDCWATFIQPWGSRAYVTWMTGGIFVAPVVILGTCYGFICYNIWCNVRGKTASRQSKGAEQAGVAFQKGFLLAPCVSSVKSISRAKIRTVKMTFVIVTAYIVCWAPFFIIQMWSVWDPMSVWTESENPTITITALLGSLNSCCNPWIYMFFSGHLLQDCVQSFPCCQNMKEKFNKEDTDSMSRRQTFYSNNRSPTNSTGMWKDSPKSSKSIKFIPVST
Description: human V1a receptor binding studies (3H-Vasopressin SPA, membranes of transfected HEK293 cells). Particulars: 3H-Vasopressin displacement, HEK293 cell membranes, SPA beads, 1 h at room temperature, Ki by Cheng-Prussoff from IC50, read-out: pKi (hV1a) (converted). How it is done: The human V1a receptor was cloned by RT-PCR from total human liver RNA. The coding sequence was subcloned in an expression vector after sequencing to confirm the identity of the amplified sequence. […] Cell membranes were prepared from HEK293-cells transiently transfected with the expression vector and grown in 20 liter fermenters with the following protocol.
50 g of cells are resuspended in 30 ml freshly prepared ice cold Lysis buffer (50 mM HEPES, 1 mM EDTA, 10 mM magnesium dichloride adjusted to pH=7.4+ complete cocktail of protease inhibitor (Roche Diagnostics)). Homogenized with Polytron for 1 min and sonicated on ice for 2×2 minutes at 80% intensity (Vibracell sonicator). The preparation is centrifuged 20 min at 500 g at 4° C., the pellet is discarded and the supernatant centrifuged 1 hour at 43,000 g at 4° C. (19,000 rpm). The pellet is resuspended in 12.5 ml Lysis buffer+12.5 ml sucrose 20% and homogenized using a Polytron for 1-2 min. The protein concentration is determined by the Bradford method and aliquots are stored at −80° C. until use. For binding studies 60 mg Yttrium silicate SPA beads (Amersham®) are mixed with an aliquot of membrane in binding buffer (50 mM Tris, 120 mM sodium chloride, 5 mM potassium chloride, 2 mM calcium dichloride, 10 mM magnesium dichloride) for 15 minutes with mixing. 50 μl of bead/membrane mixture is then added to each well of a 96 well plate, followed by 50 μl of 4 nM 3H-Vasopressin (American Radiolabeled Chemicals). For total binding measurement 100 μl of binding buffer are added to the respective wells, for non-specific binding 100 μl of 8.4 mM cold vasopressin and for compound testing 100 μl of a serial dilution of each compound in 2% dimethyl sulfoxide. The plate is incubated 1 h at room temperature, centrifuged 1 min at 1000 g and counted on a Packard Top-Count. Non-specific binding counts are subtracted from each well and data is normalized to the maximum specific binding set at 100%. To calculate an IC50 the curve is fitted using a non-linear regression model (XLfit) and the Ki is calculated using the Cheng-Prussoff equation.
Take `Cc1nc(C2=CCC(c3nnc4n3-c3ccc(Cl)cc3CN(C(=O)OC(C)(C)C)C4)CC2)cs1` (racemic) [Example 34, (RS)-8-Chloro-1-[4-(2-methyl-thiazol-4-yl)-cyclohex-3-enyl]-4H,6H-2,3,5,10b-tetraaza-benzo[e]azulene-5-carboxylic acid tert-butyl ester]: the Ki was 3.72 nM.
For `Cc1nc(C2=CCC(c3nnc4n3-c3ccc(Cl)cc3CNC4)CC2)cs1` (racemic) [Example 35, (RS)-8-Chloro-1-[4-(2-methyl-thiazol-4-yl)-cyclohex-3-enyl]-5,6-dihydro-4H-2,3,5,10b-tetraaza-benzo[e]azulene] the value was 170 nM; for `Cc1nc(C2=CCC(c3nnc4n3-c3ccc(Cl)cc3CN(C)C4)CC2)cs1` (racemic) [Example 36, (RS)-8-Chloro-5-methyl-1-[4-(2-methyl-thiazol-4-yl)-cyclohex-3-enyl]-5,6-dihydro-4H-2,3,5,10b-tetraaza-benzo[e]azulene], 13.5 nM.
For `CN1Cc2cc(Cl)ccc2-n2c(nnc2C2CC=C(c3ccccn3)CC2)C1` (single isomer, unassigned; (+)) [Example 24, (+)-8-Chloro-5-methyl-1-(-4-pyridin-2-yl-cyclohex-3-enyl)-5,6-dihydro-4H-2,3,5,10b-tetraaza-benzo[e]azulene] the value was 2.88 nM; for `CC(C)(C)OC(=O)N1Cc2cc(Cl)ccc2-n2c(nnc2C2CC=C(c3ncccc3F)CC2)C1` (single isomer, unassigned; (+)) [Example 29, (+)-8-Chloro-1-[-4-(3-fluoro-pyridin-2-yl)-cyclohex-3-enyl]-4H,6H-2,3,5,10b-tetraaza-benzo[e]azulene-5-carboxylic acid tert-butyl ester], 0.794 nM.
On to `Fc1cccnc1C1=CCC(c2nnc3n2-c2ccc(Cl)cc2CNC3)CC1` (single isomer, unassigned; (+)) [Example 32, (+)-8-Chloro-1-[-4-(3-fluoro-pyridin-2-yl)-cyclohex-3-enyl]-5,6-dihydro-4H-2,3,5,10b-tetraaza-benzo[e]azulene], for which the Ki was 38.9 nM.
For `CN1Cc2cc(Cl)ccc2-n2c(nnc2C2CC=C(c3ncccc3F)CC2)C1` (single isomer, unassigned; (+)) [Example 33, (+)-8-Chloro-1-[-4-(3-fluoro-pyridin-2-yl)-cyclohex-3-enyl]-5-methyl-5,6-dihydro-4H-2,3,5,10b-tetraaza-benzo[e]azulene] the value was 5.13 nM; for `CN1Cc2cc(Cl)ccc2-n2c(nnc2C2CC=C(c3ccccn3)CC2)C1` (single isomer, unassigned; (-)) [Example 23, (−)-8-Chloro-5-methyl-1-(-4-pyridin-2-yl-cyclohex-3-enyl)-5,6-dihydro-4H-2,3,5,10b-tetraaza-benzo[e]azulene], 7.59 nM; for `CC(C)(C)OC(=O)N1Cc2cc(Cl)ccc2-n2c(nnc2C2CC=C(c3ncccc3F)CC2)C1` (single isomer, unassigned; (-)) [Example 28, (−)-8-Chloro-1-[-4-(3-fluoro-pyridin-2-yl)-cyclohex-3-enyl]-4H,6H-2,3,5,10b-tetraaza-benzo[e]azulene-5-carboxylic acid tert-butyl ester], 1.91 nM.
`Fc1cccnc1C1=CCC(c2nnc3n2-c2ccc(Cl)cc2CNC3)CC1` (single isomer, unassigned; (-)) [Example 30, (−)-8-Chloro-1-[-4-(3-fluoro-pyridin-2-yl)-cyclohex-3-enyl]-5,6-dihydro-4H-2,3,5,10b-tetraaza-benzo[e]azulene]: the Ki was 42.7 nM.
For `CN1Cc2cc(Cl)ccc2-n2c(nnc2C2CC=C(c3ncccc3F)CC2)C1` (single isomer, unassigned; (-)) [Example 31, (−)-8-Chloro-1-[-4-(3-fluoro-pyridin-2-yl)-cyclohex-3-enyl]-5-methyl-5,6-dihydro-4H-2,3,5,10b-tetraaza-benzo[e]azulene], the Ki was 8.13 nM.
